Square brackets hold non-standard residues; d marks the D form. Peptide text beside a SMILES is read from it. Nle = CCCC[C@H](N)C(=O)O
How the values were obtained:
[1] = tested on: calpain; experiment: Calpain inhibitor test: Fura-2 and EYFP fluorescence in primary cultures of cerebellum expressing F2C, potassium stimulation; format: cell-based, rat; settings: ALLN 100 μM, ALLM 50 μM; for percentage of F535 EYFP maximum fluorescence change to Fura-2 maximum ratio change versus control free of calpain inhibitors: p>0.28; for percentage of F535 EYFP maximum fluorescence change to Fura-2 maximum ratio change (mean ± S.E.M.): preincubation 1 hr, potassium stimulation, n=10 cells
Experimental: (§1) The primary culture of cerebellum was incubated at 37° C., in 5% CO2 and 95% O2 atmosphere. The cells on a cover glass slip were infected with Sindbis-F2C 24 hrs before the incubation with Fura-2/AM (Molecular Probes, Eugene, Oregon, U.S.A.). This glass slip was transferred to a new dish filled with an external solution (ACSF, artificial cerebro-spinal fluid; 155 mM NaCl, 2.5 mM CaCl2, 1 mM MgCl2, 10 mM, HEPES, 17 mM glucose and 5 mM KOH and adjusted to pH 7.4). Fura-2/AM was added to a final concentration of 20 μM, and further incubated for 30 min at 37° C. Fura-2/AM (10 mM) stock was dissolved in DMSO. Cerebella cultures were transferred under the upright microscope equipped with a cooled CCD camera, and the image was prepared (ORCA-ER on Aquacosmos, Hamamatsu Photonics, Hamamatsu, Japan). For Fura-2 imaging, excitation light at wavelength 340 nm (10 nm band widths, 100% transmission) and excitation light at wavelength 380 nm (10 nm band widths, 100% transmission) were alternately applied, and fluorescence was captured at 510 nm and at longer wavelength. When F2C fluorescence was measured simultaneously, excitation light at 440 nm (10 nm band widths, 100% transmission) was applied and the fluorescence at a wavelength longer than 510 nm was captured. This fluorescence corresponds to EYFP. When FRET was measured from brain slice preparations or from cerebella cultures, neurons were excited at 440 nm (20 nm band width 60% transmission, XF1071 Omega Optical) with a dichroic mirror at 435 ram (XF2034 Omega Optical) and the fluorescence was monitored through 480 nm (30 nm bandwidth 75% transmission, XF3075 Omega Optical) for ECFP and 535 nm (25 nm bandwidth 70% transmission, XF3079 Omega Optical+50% ND filter) for EYFP.
To test the inhibition of calpain activities, calpain inhibitor-1 (ALLN, Calbiochem) and calpain inhibitor-2 (ALLM, Calbiochem) were adopted and Fura-2 fluorescence and EYFP fluorescence measurements were similarly conducted. The primary cultures of cerebellum were preincubated in ACSF containing ALLN (100 μM in DMSO), ALLM (50 μM in DMSO) or a combination of both for 1 hr. The same concentration of DMSO was added to ACSF as a control.

[2] = tested on: cerebellar Purkinje cells; experiment: FRET fluorescence ratio (ECFP/EYFP) in cultured Purkinje cells expressing the indicator, KCl stimulation; format: cell-based, rat
Experimental: Purkinje cells were cultured in the same manner as reported previously (Weber, A. et al., Brain Res., 311, 119-130, 1984/Hirano, T. et al., Proc. Natl. Acad. Sci. U.S.A., 83, 1945-1949, 1986). In short, cerebella were dissected from Wistar rat fetus (about 20 days of fetal stage), and meninges were removed. The cerebella were incubated at 20° C. for 4 min in 1% trypsin (Invitrogen, California, U.S.A.)/0.05% DNase (Sigma, Missouri, U.S.A.) solution containing 137 mM NaCl, 5 mM KCl, 7 mM Na2PO4, and 25 mM HEPES (pH 7.2). After washing with Ca^2+- and Mg^2+-free Hanks' balanced salt solution (Invitrogen) three times, the tissue was dispersed by trituration with a fire polished Pasteur pipette in Ca^2+-free Hanks' balanced salt solution containing 0.05% DNase and 12 mM MgSO4. The cell suspension was centrifuged at 180×g at room temperature and the pelletized cells were resuspended at a concentration of 10^6 cells per 1 ml in a defined medium, which facilitates the survival of neurons (Weber, A. et al., Brain Res., 311, 119-130, 1984/Fischer, G. et al., Neurosci Lett, 28, 325-329, 1982). 2 ml of this cell suspension was plated on a Petri dish containing several heat-sterilized glass coverslips coated with 0.01% poly-L-lysin (Sigma). This cell culture was incubated at 37° C. in 5% CO2. The cells on the glass coverslips were used for infection with Sindbis virus. […]
(§2) The primary culture of cerebellum was incubated at 37° C., in 5% CO2 and 95% O2 atmosphere. […] For Fura-2 imaging, excitation light at wavelength 340 nm (10 nm band widths, 100% transmission) and excitation light at wavelength 380 nm (10 nm band widths, 100% transmission) were alternately applied, and fluorescence was captured at 510 nm and at longer wavelength. When F2C fluorescence was measured simultaneously, excitation light at 440 nm (10 nm band widths, 100% transmission) was applied and the fluorescence at a wavelength longer than 510 nm was captured. This fluorescence corresponds to EYFP. […]

[3] = tested on: cochlear nucleus neurons in brain slices; experiment: FRET fluorescence ratio (ECFP/EYFP) in cochlear nucleus neurons of brain-stem slices after in vivo Sindbis injection, KCl stimulation; format: cell-based, rat
Experimental: Young Wistar rats (9-10 days old) were anesthetized with chloral hydrate (0.3 mg/g body weight). Then, the head of rat was fixed on a stereotaxis stage with a pair of ear bars and a nose clamp (SR-5N, Narishige, Tokyo, Japan). The head skin was sagittally incised and a small hole was made through the skull to expose the cerebellum. A micropipette was inserted through cerebellum, and a suspension of Sindbis virus encoding F2C protein (Sindbis-F2C) was injected (0.5-1 μl) into the brainstem by applying a mild positive pressure to the micropipette with the mouth. The incised part of the skin was then sutured and the rat was returned to the mother after recovery from anesthesia. […]
as §2

[4] = target: T1, μ-calpain (Homo sapiens, UniProt P07384); experiment: Western blotting for cleavage of the fusion protein by calpain; format: biochemical; settings: incubated with purified μ-calpain in Ca-EGTA buffer (data not shown)
T1 construct: purchased Calbiochem
T1 sequence (P07384 1-714): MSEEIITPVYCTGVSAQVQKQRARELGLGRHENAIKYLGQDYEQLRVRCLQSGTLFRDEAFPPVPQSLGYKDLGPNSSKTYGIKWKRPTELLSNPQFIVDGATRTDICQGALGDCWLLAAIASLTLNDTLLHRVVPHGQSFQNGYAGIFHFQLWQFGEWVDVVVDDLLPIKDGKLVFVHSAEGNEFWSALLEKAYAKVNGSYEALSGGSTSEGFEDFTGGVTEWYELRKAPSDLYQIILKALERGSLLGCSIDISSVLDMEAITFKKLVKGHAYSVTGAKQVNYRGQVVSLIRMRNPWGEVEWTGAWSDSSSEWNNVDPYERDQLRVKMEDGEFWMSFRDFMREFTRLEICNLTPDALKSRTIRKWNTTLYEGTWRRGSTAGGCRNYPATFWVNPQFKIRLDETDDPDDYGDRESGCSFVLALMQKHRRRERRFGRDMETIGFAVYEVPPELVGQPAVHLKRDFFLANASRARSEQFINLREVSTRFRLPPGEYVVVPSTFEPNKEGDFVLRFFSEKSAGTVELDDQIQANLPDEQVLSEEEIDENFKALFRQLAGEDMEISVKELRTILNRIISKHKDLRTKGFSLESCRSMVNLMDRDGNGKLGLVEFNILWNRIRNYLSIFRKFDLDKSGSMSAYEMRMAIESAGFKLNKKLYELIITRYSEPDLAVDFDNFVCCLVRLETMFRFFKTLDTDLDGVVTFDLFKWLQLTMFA
T1 sequence (P04632 1-268 partner): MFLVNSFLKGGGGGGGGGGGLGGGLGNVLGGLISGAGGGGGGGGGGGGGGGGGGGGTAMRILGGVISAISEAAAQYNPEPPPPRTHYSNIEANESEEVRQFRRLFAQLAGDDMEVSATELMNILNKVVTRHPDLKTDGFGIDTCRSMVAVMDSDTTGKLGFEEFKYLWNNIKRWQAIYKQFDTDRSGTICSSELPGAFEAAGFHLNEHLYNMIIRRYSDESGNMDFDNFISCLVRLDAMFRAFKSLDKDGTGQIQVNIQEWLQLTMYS
Experimental: To obtain cell lysate, cells were pelletized and homogenized in EGTA buffer (10 mM EGTA-Na, 10 mM HEPES-K, 150 mM NaCl) or Ca-EGTA buffer (10 mM CaCl2, 10 mM EGTA-Na, 10 mM HEPES-K, 150 mM NaCl). The Ca^2+ concentration was finally adjusted to 20 μM. The cell lysates contained the protease inhibitor cocktail (Nacalai Tesque). The cell lysates were incubated at 30° C. for 30 min or 60 min. In some experiments, cell lysates were incubated with a purified μ-calpain (Calpain I, Calbiochem, California, U.S.A.) at 30° C. for 30 min or 60 min. These cell lysates were centrifuged at 20,000×g for 20 min and the supernatants were fractionated. The supernatants were loaded onto 10% SDS-PAGE gels. Western blotting was carried out according to the method of Towbin et al. (Towbin, H. et al., Proc. Natl. Acad. Sci. U.S.A., 76, 4350-4354, 1979), using mouse anti-GFP antibody for detecting F2C cleavage (dilution rate 1:1000, MBL, Nagoya, Japan) and anti-PKC α antibody (dilution rate 1:500, Upstate, N.Y., U.S.A.) to confirm calpain activity.

[5] = tested on: Ca^2+; experiment: Simultaneous Fura-2 and F2C fluorescence measurement, Ca2+ titration and kinetics; format: cell-based, rat
Experimental: as §1
Rmax=2.38 and Rmin=0.58 were obtained by measurement from the Purkinje cell membrane loaded with Fura-2 perforated with 1 μM ionomycin, after equilibration with normal ACSF ([…]) for Rmax and equilibration with 0 mM CaCl2, 10 mM EGTA ACSF for Rmin. […]

Compound | percentage of F535 EYFP maximum fluorescence change to Fura-2 maximum ratio change versus control free of calpain inhibitors [1] | percentage of F535 EYFP maximum fluorescence change to Fura-2 maximum ratio change (mean ± S.E.M.) [1] | ECFP/EYFP fluorescence ratio change ([2]; Purkinje cells 14DIV exposed to 7.5 mM KCl (basal 5 mM)) | ECFP/EYFP fluorescence ratio change ([2]; Purkinje cells 14DIV exposed to 10 mM KCl (basal 5 mM)) | ECFP/EYFP fluorescence ratio change ([2]; Purkinje cells 14DIV exposed to 15 mM KCl (basal 5 mM)) | time over which reversible changes of the ECFP/EYFP fluorescence ratio were observed ([3]; 10 mM KCl stimulation, cochlear nucleus neurons, FIG. 9) | change of FRET fluorescence ratio on exposure to high KCl solution ([3]; brainstem slices, 15 mM KCl applied 3 times) | fragmented protein signal in Western blot (cleavage by calpain) [4] | speed of Ca^2+ response (20-80% rise time of F535) compared with Fura-2 (F340/F380) ([5]; n=240 cells, various CaCl2 and KCl conditions) | Hill coefficient ([5]; titration of F2C, pH 7.4) | Kd ([5]; titration of F2C, pH 7.4, read-out: apparent Kd value for Ca^2+)
CSCC[C@@H](C=O)NC(=O)[C@H](CC(C)C)NC(=O)[C@H](CC(C)C)NC(C)=O [ALLM] (Ac-Leu-Leu-Met-aldehyde) | not different | 35.9 ± 1.4% |  |  |  |  |  |  |  |  | 
CCCC[C@@H](C=O)NC(=O)[C@H](CC(C)C)NC(=O)[C@H](CC(C)C)NC(C)=O [ALLN] (Ac-Leu-Leu-[Nle]-aldehyde) | not different | 37.1 ± 2.1% |  |  |  |  |  |  |  |  | 
F2C: Fusion protein (SEQ ID NO:6): GAP43 palmitoylation signal, ECFP, two α-spectrin calpain sensitive sequences, EYFP |  |  | 1.03 fold | 1.39 fold | 1.78 fold | at least 200 min | changed reversibly | not detected | almost the same speed | 4 | 150 nM

Source: patent publication US7713713B2, “Polypeptide having intracellular calcium ion indicator function” (Kyoto University, priority 2005, dated 2010)
